This is an account of results in PMC9821961, “Ring-Modified Histidine-Containing Cationic Short Peptides Exhibit Anticryptococcal Activity by Cellular Disruption” (Molecules, 2022).

Common to all, as to assay: microbe, parasite or virus in culture
One test has as its system S. pyogens. Type of test: cell-based, Streptococcus pyogenes.
Another test deals with S. aureus. In kind it is cell-based, Staphylococcus aureus. An excerpt: (§1) Microbial strains: Microbial strains were procured from National Culture Collection of Pathogenic Fungi (NCCPF) at the Postgraduate Institute of Medical Education & Research (PGIMER), Chandigarh and Microbial Type Culture Collection and Gene bank (MTCC) at the Institute of Microbial Technology (IMTECH), Chandigarh, India. Peptides were screened against five different strains of fungi: viz. Candida albicans (NCCPF400034), Candida glabrata (MTCC 3019), Candida parapsilosis (NCCPF 440002), Candida krusei (NCCPF 440002) and Cryptococcus neoformans (NCCPF250316), and five strains of bacteria: viz. Escherichia coli (MTCC 2961), Staphylococcus aureus (MTCC 3160), Enterococcus faecalis (MTCC 439), Streptococcus pyogenes (MTCC 442) and Pseudomonas aeruginosa (MTCC 3542).
(§2) Growth media: Antifungal susceptibility testing was carried out using standard broth microdilution assays as per the Clinical and Laboratory Standards Institute (CLSI) guidelines for fungi. RPMI 1640 (Sigma), yeast extract, peptone and dextrose (YPED, Himedia) were used as the incubation broths. The cells were diluted to a cell density of 10^3 colony forming unit (CFU/mL) and incubated at 30 °C for 48 h. Furthermore, Muller Hinton (Himedia) media was utilized for bacterial strains and antibacterial activity was evaluated per CLSI guidelines for bacteria. […] Amphotericin B (Himedia, India) and rifampicin (Himedia, India) were used as standard drugs for the evaluation of activity against all the fungal and bacterial strains, respectively.
(§3) The stock solutions of peptides (2 mg/mL) were prepared in DMSO. Specific amounts of peptide from stock solution were added to a 96-well microtiter plate containing 100 μL of growth media and then serially diluted two-fold. A further 100 μL of growth media containing microbial cells were added to each well and incubated at 30–37 °C for 24–48 h. The optical density (OD) was measured at 600 nm using a BioStack Ready (BioTek Instruments, Winooski, VT, USA) microplate reader to analyze microbial growth inhibition, and IC50 and MIC values were calculated. To visualize the growth and inhibition pattern, a solution of 3-(4,5-dimethylthiazol-2-yl)-2,5-diphenyltetrazolium bromide (MTT) in water was added to the plate and incubated for 2–3 h. MTT reacts with the mitochondrial dehydrogenases, which are present only in a viable cell, to give blue colored formazan crystals. Therefore, a darker color indicates a high number of viable cells; however, non-viable cells appear pale or colorless.

Another test has as its system C. albicans. In kind it is cell-based, Candida albicans. To be noted: 48 h.
Excerpt: as §1
(§4) Growth media: Antifungal susceptibility testing was carried out using standard broth microdilution assays as per the Clinical and Laboratory Standards Institute (CLSI) guidelines for fungi. RPMI 1640 (Sigma), yeast extract, peptone and dextrose (YPED, Himedia) were used as the incubation broths. The cells were diluted to a cell density of 10^3 colony forming unit (CFU/mL) and incubated at 30 °C for 48 h. Furthermore, Muller Hinton (Himedia) media was utilized for bacterial strains and antibacterial activity was evaluated per CLSI guidelines for bacteria. Bacterial cells were diluted to a cell density of 10^5 CFU/mL and incubated at 37 °C for 24 h. Amphotericin B (Himedia, India) and rifampicin (Himedia, India) were used as standard drugs for the evaluation of activity against all the fungal and bacterial strains, respectively.
as §3

For the next test, the system named is P. aeruginosa. Type of test: cell-based, Pseudomonas aeruginosa.
The next test deals with C. glabrata. In kind it is cell-based, Candida glabrata. To be noted: 48 h.
Excerpt: as §1, §4, §3

A further test has as its system E. faecalis. Type of test: cell-based, Enterococcus faecalis.
A further test deals with C. parapsilosis. Type of test: cell-based, Candida parapsilosis. The settings on record: 48 h.
Excerpt: as §1, §4, §3

The test system of a further test is C. krusei. In kind it is cell-based, Candida krusei. To be noted: 48 h.
Excerpt: as §1, §4, §3

In the next test the test system is E. coli. Type of test: cell-based, Escherichia coli.
Excerpt: as §1, §2, §3

The test system of another test is C. neoformans. Type of test: cell-based, Cryptococcus neoformans.
Excerpt: as §1, §4, §3

Setting [1] is: C. neoformans, lowest test concentration with no detectable growth.

Values after ≈ are worked out from the molar mass of the structure shown. Where two headings read alike, the source gives them in different places.

Usually IC50 stands for the concentration needed to halve the response being measured. `COC(=O)[C@H](Cc1ncn(Cc2ccc(C(C)(C)C)cc2)c1I)NC(=O)[C@@H](N)Cc1c[nH]c2ccccc12` [10b]: the IC50 with S. pyogens (48 h) is >35.2 µg/mL; with S. aureus (48 h) it was 35.2 µg/mL (≈ 56.1 µM); in the test with C. albicans, >35.2 µg/mL; in the test with P. aeruginosa (48 h) it was >35.2 µg/mL; with C. glabrata, >35.2 µg/mL; in the test on E. faecalis (48 h), >35.2 µg/mL. Further, the IC50 in the test with C. parapsilosis is >35.2 µg/mL; with C. krusei, >35.2 µg/mL; in the test with E. coli (48 h) it was 35.2 µg/mL (≈ 56.1 µM); in the test with C. neoformans (48 h) it was 5.15 µg/mL (≈ 8.21 µM). Moreover, the MIC is >64.0 µg/mL in the test with S. pyogens (48 h); 64.0 µg/mL (≈ 102 µM) against S. aureus (48 h); >64.0 µg/mL against C. albicans; >64.0 µg/mL against P. aeruginosa (48 h); >64.0 µg/mL against C. glabrata; >64.0 µg/mL in the test with E. faecalis (48 h). For the same compound, the MIC with C. parapsilosis is >64.0 µg/mL; against C. krusei it was >64.0 µg/mL; in the test on E. coli (48 h), 64.0 µg/mL (≈ 102 µM).
`COC(=O)[C@H](Cc1ncn(Cc2cccc(I)c2)c1I)NC(=O)[C@@H](N)Cc1c[nH]c2ccccc12` [10n, Trp-His[1-(3-iodobenzyl)-5-iodo]-OMe]: the concentration for half-maximal inhibition (IC50) in the test on S. pyogens (48 h), in the test with S. aureus (48 h), with C. albicans, with P. aeruginosa (48 h), with C. glabrata and in the test on E. faecalis (48 h) was >35.2 µg/mL in each case. Moreover, the IC50 in the test on C. parapsilosis, in the test on C. krusei and in the test with E. coli (48 h) was >35.2 µg/mL each time. Moreover, the MIC in the test with S. pyogens (48 h), in the test with S. aureus (48 h), in the test on C. albicans, with P. aeruginosa (48 h), in the test on C. glabrata and against E. faecalis (48 h) was >64.0 µg/mL in each case. The MIC against C. parapsilosis was >64.0 µg/mL; against C. krusei it was >64.0 µg/mL; with E. coli (48 h) it was >64.0 µg/mL; in the test on C. neoformans (48 h) it was 32.05 µg/mL (≈ 46 µM).
`CO[C@H]1/C=C/O[C@@]2(C)Oc3c(C)c(O)c4c(O)c(c(/C=N/N5CCN(C)CC5)c(O)c4c3C2=O)NC(=O)/C(C)=C\C=C\[C@H](C)[C@H](O)[C@@H](C)[C@@H](O)[C@@H](C)[C@H](OC(C)=O)[C@@H]1C` [Rifampicin, reference compound]: the 50% inhibitory concentration (IC50) in the test with S. pyogens (Streptococcus pyogenes, S. pyogens, read-out: IC50) stood at 1 µg/mL (≈ 1.22 µM); with S. aureus (Staphylococcus aureus), 2 µg/mL (≈ 2.43 µM); in the test with P. aeruginosa (Pseudomonas aeruginosa, P. aeruginosa, read-out: IC50), 16 µg/mL (≈ 19.4 µM); in the test with E. faecalis (Enterococcus faecalis, E. faecalis, read-out: IC50) it was 1 µg/mL (≈ 1.22 µM); in the test with E. coli (Escherichia coli) it was 1 µg/mL (≈ 1.22 µM). The MIC was 2 µg/mL (≈ 2.43 µM) with S. pyogens (Streptococcus pyogenes, S. pyogens, read-out: MIC); 4 µg/mL (≈ 4.86 µM) with S. aureus (Staphylococcus aureus); 32 µg/mL (≈ 38.9 µM) in the test with P. aeruginosa (Pseudomonas aeruginosa, P. aeruginosa, read-out: MIC); 2 µg/mL (≈ 2.43 µM) in the test on E. faecalis (Enterococcus faecalis, E. faecalis, read-out: MIC); 2 µg/mL (≈ 2.43 µM) with E. coli (Escherichia coli).
Turning to `COC(=O)[C@H](Cc1ncn(Cc2ccc(C(C)C)cc2)c1I)NC(=O)[C@H](Cc1c[nH]c2ccccc12)NC(=O)OC(C)(C)C` [9c], the IC50 in the test with C. albicans was >35.2 µg/mL; in the test with C. glabrata, >35.2 µg/mL; in the test on C. parapsilosis, >35.2 µg/mL; in the test on C. krusei, >35.2 µg/mL; in the test on C. neoformans (48 h), 20.39 µg/mL (≈ 28.6 µM). The MIC is >64.0 µg/mL against C. albicans; >64.0 µg/mL against C. glabrata; >64.0 µg/mL in the test with C. parapsilosis; >64.0 µg/mL with C. krusei; 37.08 µg/mL (≈ 52 µM) against C. neoformans (48 h).
For `COC(=O)[C@H](Cc1ncn(Cc2ccccc2)c1I)NC(=O)[C@@H](N)Cc1c[nH]c2ccccc12` [10a], the IC50 in the test on C. albicans was >35.2 µg/mL; with C. glabrata it was >35.2 µg/mL; in the test with C. parapsilosis, >35.2 µg/mL; in the test with C. krusei, >35.2 µg/mL; in the test on C. neoformans (48 h), 17.68 µg/mL (≈ 30.9 µM). Moreover, the MIC was >64.0 µg/mL against C. albicans; >64.0 µg/mL in the test with C. glabrata; >64.0 µg/mL in the test with C. parapsilosis; >64.0 µg/mL in the test with C. krusei; 32.15 µg/mL (≈ 56.3 µM) against C. neoformans (48 h).
As for `COC(=O)[C@H](Cc1ncn(Cc2ccc(C(F)(F)F)cc2)c1I)NC(=O)[C@@H](N)Cc1c[nH]c2ccccc12` [10g], the IC50 was >35.2 µg/mL in the test on C. albicans; >35.2 µg/mL with C. glabrata; >35.2 µg/mL with C. parapsilosis; >35.2 µg/mL with C. krusei; 13.53 µg/mL (≈ 21.2 µM) in the test with C. neoformans (48 h). Further, the MIC is >64.0 µg/mL in the test on C. albicans; >64.0 µg/mL with C. glabrata; >64.0 µg/mL against C. parapsilosis; >64.0 µg/mL in the test with C. krusei; 24.6 µg/mL (≈ 38.5 µM) in the test with C. neoformans (setting [1]). Moreover, the “Fold reduction of activity” value with C. neoformans (C. neoformans, on replacing methyl of the tert-butyl moiety with fluorine) came out at 2.6 fold.
`COC(=O)[C@H](Cc1ncn(Cc2ccccc2)c1I)NC(=O)[C@H](Cc1c[nH]c2ccccc12)NC(=O)OC(C)(C)C` [9a]: the IC50 was >35.2 µg/mL with C. albicans; >35.2 µg/mL with C. glabrata; >35.2 µg/mL in the test with C. parapsilosis; >35.2 µg/mL with C. krusei; 17.78 µg/mL (≈ 26.5 µM) in the test on C. neoformans (48 h). Moreover, the MIC was >64.0 µg/mL against C. albicans; >64.0 µg/mL in the test on C. glabrata; >64.0 µg/mL with C. parapsilosis; >64.0 µg/mL in the test on C. krusei; 32.34 µg/mL (≈ 48.2 µM) against C. neoformans (48 h).
As for `COC(=O)[C@H](Cc1ncn(Cc2ccc([N+](=O)[O-])cc2)c1I)NC(=O)[C@H](Cc1c[nH]c2ccccc12)NC(=O)OC(C)(C)C` [9h], the 50% inhibitory concentration (IC50) in the test on C. albicans, with C. glabrata, in the test on C. parapsilosis, with C. krusei and with C. neoformans (48 h) was >35.2 µg/mL in each case. The MIC in the test with C. albicans, in the test with C. glabrata, against C. parapsilosis, with C. krusei and in the test on C. neoformans (48 h) was >64.0 µg/mL throughout.
For the compound `COC(=O)[C@H](Cc1ncn(Cc2ccc(F)c(F)c2)c1I)NC(=O)[C@@H](N)Cc1c[nH]c2ccccc12` [10i], the IC50 in the test on C. albicans is >35.2 µg/mL; with C. glabrata it was >35.2 µg/mL; in the test on C. parapsilosis, >35.2 µg/mL; in the test with C. krusei it was >35.2 µg/mL; in the test with C. neoformans (48 h), 10.28 µg/mL (≈ 16.9 µM). Also, the MIC with C. albicans is >64.0 µg/mL; against C. glabrata it was >64.0 µg/mL; against C. parapsilosis, >64.0 µg/mL; in the test on C. krusei it was >64.0 µg/mL; against C. neoformans (setting [1]), 18.7 µg/mL (≈ 30.8 µM).
